Assays:
Assay in all cases: area over the GR curve, 72 h; higher = more effect;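 note: Dye Drop or Deep Dye Drop imaging of viable cells in 384-well plates (Hoechst nuclei, LIVE/DEAD dye), nine half-log doses, GR normalized to DMSO controls and time-zero plates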
184A1 = test system: 184A1
BT20 = test system: BT20
CAL120 = test system: CAL120
CAMA1 = test system: CAMA1
MCF7 = test system: MCF7
PDX1328 = test system: PDX1328
SUM149 = test system: SUM149
SUM159 = test system: SUM159
SUM185PE = test system: SUM185PE
SUM229PE = test system: SUM229PE
UACC893 = test system: UACC893
ZR7530 = test system: ZR7530

SMILES | area over the GR curve (184A1) [GR] | area over the GR curve (BT20) [GR] | area over the GR curve (CAL120) [GR] | area over the GR curve (CAMA1) [GR] | area over the GR curve (MCF7) [GR] | area over the GR curve (PDX1328) [GR] | area over the GR curve (SUM149) [GR] | area over the GR curve (SUM159) [GR] | area over the GR curve (SUM185PE) [GR] | area over the GR curve (SUM229PE) [GR] | area over the GR curve (UACC893) [GR] | area over the GR curve (ZR7530) [GR] | area over the GR curve (BT20; main component drawn) [GR] | area over the GR curve (CAL120; main component drawn) [GR] | area over the GR curve (CAMA1; main component drawn) [GR] | area over the GR curve (MCF7; main component drawn) [GR] | area over the GR curve (PDX1328; main component drawn) [GR] | area over the GR curve (SUM149; main component drawn) [GR] | area over the GR curve (SUM159; main component drawn) [GR]
CS(=O)(=O)N1CCN(Cc2cc3nc(-c4cccc5[nH]ncc45)nc(N4CCOCC4)c3s2)CC1 [Pictilisib/GDC0941] (max 10 µM) | 0.276 | 0.296 | 0.255 | 0.262 | 0.506 | 0.296 | 0.117 | 0.129 | 0.458 | 0.137 | 0.323 | 0.465 | – | – | – | – | – | – | –
O=C1NC(=O)[C@@H](c2cn3c4c(cccc24)CCC3)[C@@H]1c1c[nH]c2ccccc12 [Tivantinib/ARQ197] (max 10 µM) | 0.582 | 0.416 | 0.465 | 0.526 | 0.453 | 0.528 | 0.446 | 0.403 | 0.239 | 0.661 | 0.405 | 0.457 | – | – | – | – | – | – | –
Cc1c(N)nc([C@H](CC(N)=O)NC[C@H](N)C(N)=O)nc1C(=O)N[C@H](C(=O)N[C@H](C)[C@@H](O)[C@H](C)C(=O)N[C@H](C(=O)NCCc1nc(-c2nc(C(=O)NCCC[S+](C)C)cs2)cs1)[C@@H](C)O)[C@@H](OC1OC(CO)C(O)C(O)C1OC1OC(CO)C(O)C(OC(N)=O)C1O)c1cnc[nH]1 (some centres not stated) [Bleomycin] (max 10 µM) | – | – | – | – | – | – | – | – | – | – | – | – | 0.376 | 0.232 | 0.274 | 0.555 | 0.199 | 0.683 | 0.463
CO[C@H]1C[C@@H]2CC[C@@H](C)[C@@](O)(O2)C(=O)C(=O)N2CCCC[C@H]2C(=O)O[C@H]([C@H](C)C[C@@H]2CC[C@@H](OCCO)[C@H](OC)C2)CC(=O)[C@H](C)/C=C(\C)[C@@H](O)[C@@H](OC)C(=O)[C@H](C)C[C@H](C)/C=C/C=C/C=C/1C [Everolimus] (max 10 µM) | 0.452 | 0.593 | 0.416 | 0.767 | 0.564 | 0.642 | 0.201 | 0.108 | 0.2 | 0.226 | 0.714 | 0.598 | – | – | – | – | – | – | –
CN1CC[C@H](c2c(O)cc(O)c3c(=O)cc(-c4ccccc4Cl)oc23)[C@H](O)C1 [Flavopiridol] (max 1 µM) | 0.418 | 0.334 | 0.229 | 0.253 | 0.36 | 0.216 | 0.255 | 0.256 | 0.308 | 0.3 | 0.321 | 0.236 | – | – | – | – | – | – | –
CNCc1ccc(-c2[nH]c3cc(F)cc4c3c2CCNC4=O)cc1 [Rucaparib] (max 10 µM) | 0.0986 | 0.0785 | 0.125 | 0.0981 | 0.0771 | 0.151 | 0.2 | 0.0948 | 0.108 | 0.047 | 0.164 | 0.25 | – | – | – | – | – | – | –
CC[C@@H]1C(=O)N(C)c2cnc(Nc3ccc(C(=O)N[C@H]4CC[C@H](N5CCN(CC6CC6)CC5)CC4)cc3OC)nc2N1C(C)C [Volasertib/BI6727] (max 1 µM) | 0.54 | 0.79 | 0.676 | 0.674 | 0.605 | 0.842 | 0.569 | 0.392 | 0.286 | 0.605 | 0.813 | 0.753 | – | – | – | – | – | – | –
CC1(N)CCN(c2cnc(-c3cccc(Cl)c3Cl)c(N)n2)CC1 [SHP099] (max 10 µM) | 0.118 | 0.0072 | -0.0004 | 0.0525 | 0.0308 | 0.0593 | 0.001 | 0.0503 | 0.176 | -0.0033 | -0.0199 | -0.0067 | – | – | – | – | – | – | –
CNc1nc(-c2ccc3c(N)n[nH]c3c2)cc(N2C[C@@H](C(=O)NC3CCCCC3)CC[C@H]2C)n1 (max 10 µM) | 0.135 | 0.0701 | 0.0896 | -0.0192 | 0.256 | 0.136 | 0.0419 | 0.106 | 0.224 | 0.0671 | 0.137 | 0.408 | – | – | – | – | – | – | –
CCc1cncnc1N1CCN(Cc2nc3ccc(C(F)(F)F)cc3[nH]2)CC1 (max 10 µM) | -0.0012 | -0.0022 | 0.0139 | 0.0582 | 0.0548 | 0.0319 | 0.0207 | 0.0106 | 0.144 | 0.0479 | 0.0713 | 0.0942 | – | – | – | – | – | – | –
COc1cc2c(Oc3ccc4[nH]c(C)cc4c3F)ncnc2cc1OCCCN1CCCC1 [Cediranib/AZD2171] (max 10 µM) | 0.0594 | 0.0199 | 0.299 | 0.109 | 0.0756 | 0.162 | 0.0456 | 0.0309 | 0.582 | 0.0369 | 0.122 | 0.0237 | – | – | – | – | – | – | –
CCc1cnn2c(NCc3ccc[n+]([O-])c3)cc(N3CCCC[C@H]3CCO)nc12 (max 1 µM) | 0.636 | 0.672 | 0.555 | 0.606 | 0.644 | 0.656 | 0.687 | 0.465 | 0.261 | 0.532 | 0.67 | 0.713 | – | – | – | – | – | – | –
COc1cccc(OCCCN)c1-c1cc(Nc2cnc(C#N)cn2)n[nH]1 | 0.0009 | 0.973 | 0.344 | 0.483 | 0.794 | 0.442 | 0.793 | 0.533 | 0.167 | 0.342 | 0.171 | 0.0681 | – | – | – | – | – | – | –
CC(C)n1nc(-c2ccc3oc(N)nc3c2)c2c(N)ncnc21 [INK128/MLN0128] (max 3.162 µM) | 0.581 | 0.568 | 0.602 | 0.64 | 0.726 | 0.745 | 0.318 | 0.356 | 0.609 | 0.379 | 0.745 | 0.533 | – | – | – | – | – | – | –
N.N.[Cl][Pt][Cl] [Cisplatin] (max 10 µM) | – | 0.334 | 0.182 | 0.328 | 0.0631 | 0.287 | 0.355 | 0.137 | – | – | – | – | – | – | – | – | – | – | –
Nc1cc(C(F)(F)F)c(-c2cc(N3CCOCC3)nc(N3CCOCC3)n2)cn1 [Buparlisib/NVP-BKM120] (max 10 µM) | 0.268 | 0.359 | 0.339 | 0.353 | 0.503 | 0.395 | 0.248 | 0.184 | 0.299 | 0.279 | 0.587 | 0.371 | – | – | – | – | – | – | –
